Patent publication US20210070748A1, “INHIBITORS OF BRUTONS TYROSINE KINASE” (Pharmacyclics LLC, priority 2015, published 2021)

Assays:
TEC = target: T1, TEC (Homo sapiens, UniProt P42680); experiment: Inhibition of a panel of kinases, in vitro HotSpot kinase assay: TEC; type: biochemical; conditions: D-compounds panel data; 1 μM ATP
T1 sequence (P42680 1-631): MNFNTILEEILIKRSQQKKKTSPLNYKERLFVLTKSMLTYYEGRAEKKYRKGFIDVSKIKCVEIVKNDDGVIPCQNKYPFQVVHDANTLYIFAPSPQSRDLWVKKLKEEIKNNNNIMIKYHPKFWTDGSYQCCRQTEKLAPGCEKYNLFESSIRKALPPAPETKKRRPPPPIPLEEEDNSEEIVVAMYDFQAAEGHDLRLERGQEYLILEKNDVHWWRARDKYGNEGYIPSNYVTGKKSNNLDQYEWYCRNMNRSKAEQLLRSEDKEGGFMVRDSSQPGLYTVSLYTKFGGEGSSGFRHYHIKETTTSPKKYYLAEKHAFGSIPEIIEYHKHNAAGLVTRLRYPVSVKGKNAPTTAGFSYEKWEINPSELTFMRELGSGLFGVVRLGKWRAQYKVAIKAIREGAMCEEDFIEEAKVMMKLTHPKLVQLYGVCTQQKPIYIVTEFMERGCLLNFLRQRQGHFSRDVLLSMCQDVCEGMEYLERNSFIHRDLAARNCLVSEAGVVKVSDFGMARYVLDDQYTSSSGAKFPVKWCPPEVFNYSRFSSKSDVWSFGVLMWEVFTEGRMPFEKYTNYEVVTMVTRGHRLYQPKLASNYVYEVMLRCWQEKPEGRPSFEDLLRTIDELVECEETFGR
Experimental: The degree of inhibition of a panel of kinases is determined using the in vitro HotSpot kinase assay (purified enzymes, ^33P-ATP, an appropriate substrate and 1 μM ATP).

JAK3 = target: T2, JAK3 (Homo sapiens, UniProt P52333); experiment: Inhibition of a panel of kinases, in vitro HotSpot kinase assay: JAK3; type: biochemical; conditions: D-compounds panel data; 1 μM ATP; read-out: IC50 JAK3
T2 sequence (P52333 1-1124): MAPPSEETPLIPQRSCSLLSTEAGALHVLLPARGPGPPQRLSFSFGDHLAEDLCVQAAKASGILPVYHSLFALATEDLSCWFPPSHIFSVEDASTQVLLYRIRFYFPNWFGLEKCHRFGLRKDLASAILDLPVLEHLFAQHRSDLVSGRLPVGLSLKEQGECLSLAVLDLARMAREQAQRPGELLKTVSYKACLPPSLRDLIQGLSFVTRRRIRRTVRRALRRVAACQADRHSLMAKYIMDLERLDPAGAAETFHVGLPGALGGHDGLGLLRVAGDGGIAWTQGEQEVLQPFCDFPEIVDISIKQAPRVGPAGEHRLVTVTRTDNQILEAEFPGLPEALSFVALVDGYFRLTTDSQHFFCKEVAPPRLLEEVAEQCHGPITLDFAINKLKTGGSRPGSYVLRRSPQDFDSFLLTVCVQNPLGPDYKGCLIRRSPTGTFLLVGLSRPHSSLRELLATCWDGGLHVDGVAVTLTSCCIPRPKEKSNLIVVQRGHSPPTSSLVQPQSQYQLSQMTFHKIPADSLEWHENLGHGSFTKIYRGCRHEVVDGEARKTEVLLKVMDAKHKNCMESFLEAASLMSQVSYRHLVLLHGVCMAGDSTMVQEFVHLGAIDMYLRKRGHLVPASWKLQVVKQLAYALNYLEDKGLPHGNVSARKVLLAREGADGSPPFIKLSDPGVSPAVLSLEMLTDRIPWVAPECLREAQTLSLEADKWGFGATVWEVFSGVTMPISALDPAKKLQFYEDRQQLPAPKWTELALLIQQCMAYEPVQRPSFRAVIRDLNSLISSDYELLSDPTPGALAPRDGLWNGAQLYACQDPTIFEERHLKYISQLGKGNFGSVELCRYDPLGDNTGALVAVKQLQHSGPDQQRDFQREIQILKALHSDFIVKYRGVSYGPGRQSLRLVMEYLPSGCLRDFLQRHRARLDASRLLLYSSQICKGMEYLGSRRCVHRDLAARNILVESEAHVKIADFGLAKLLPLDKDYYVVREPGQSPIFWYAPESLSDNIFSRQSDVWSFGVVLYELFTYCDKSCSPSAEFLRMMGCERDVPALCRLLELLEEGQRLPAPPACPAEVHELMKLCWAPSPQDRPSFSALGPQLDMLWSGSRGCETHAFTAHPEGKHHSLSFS

Structure (SMILES)	IC50 (TEC)	IC50 (JAK3)
C[C@@H]1[C@H](NC(=O)c2ccc(C3CC3)cc2F)CCCN1c1cnc(C(N)=O)c(Nc2ccc(CN3CCN(C)CC3)cc2)c1 [Example D-125, 5-[(2R,3R)-3-(4-cyclopropyl-2-fluorobenzamido)-2-methylpiperidin-1-yl]-3-({4-[(4-methylpiperazin-1-yl)methyl]phenyl}amino)pyridine-2-carboxamide]	1000 to 10000 nM	1000 to 10000 nM
C[C@@H]1[C@H](NC(=O)c2ccc(C3CC3)cc2F)CCCN1c1cnc(C(N)=O)c(Nc2ccc(N3CCN(C)CC3)cc2)c1 [Example D-126, 5-[(2R,3R)-3-(4-cyclopropyl-2-fluorobenzamido)-2-methylpiperidin-1-yl]-3-{[4-(4-methylpiperazin-1-yl)phenyl]amino}pyridine-2-carboxamide]	1000 to 10000 nM	> 10000 nM
C[C@@H]1[C@H](NC(=O)N(C)C)CCCN1c1cnc(C(N)=O)c(Nc2ccc(N3CCN(C)CC3)cc2)c1 [Example D-127, 5-[(2R,3R)-3-[(dimethylcarbamoyl)amino]-2-methylpiperidin-1-yl]-3-{[4-(4-methylpiperazin-1-yl)phenyl]amino}pyridine-2-carboxamide]	1000 to 10000 nM	> 10000 nM
C[C@@H]1[C@H](NC(=O)N(C)C)CCCN1c1cnc(C(N)=O)c(Nc2cnn(C)c2)n1 [Example D-128, 5-[(2R,3R)-3-[(dimethylcarbamoyl)amino]-2-methylpiperidin-1-yl]-3-[(1-methyl-1H-pyrazol-4-yl)amino]pyrazine-2-carboxamide]	10 to 100 nM	1000 to 10000 nM
C[C@@H]1[C@H](NC(=O)c2ccc(C3CC3)cc2F)CCCN1c1cnc(C(N)=O)c(Nc2ccn(C)n2)n1 [Example D-129, 5-[(2R,3R)-3-(4-cyclopropyl-2-fluorobenzamido)-2-methylpiperidin-1-yl]-3-[(1-methyl-1H-pyrazol-3-yl)amino]pyrazine-2-carboxamide]	> 10000 nM	> 10000 nM
C[C@@H]1[C@H](NC(=O)c2ccc(C3CC3)cc2F)CCCN1c1cnc(C(N)=O)c(Nc2ccc(S(=O)(=O)N3CCN(C)CC3)cc2)n1 [Example D-130, 5-[(2R,3R)-3-(4-cyclopropyl-2-fluorobenzamido)-2-methylpiperidin-1-yl]-3-({4-[(4-methylpiperazin-1-yl)sulfonyl]phenyl}amino)pyrazine-2-carboxamide]	100 to 1000 nM	> 10000 nM
Cc1ccc(-c2cnc([C@@H]3CCCN(c4cnc(C(N)=O)c(Nc5cc(C)ns5)n4)[C@@H]3C)[nH]2)cc1 [Example D-131, 3-[(3-methyl-1,2-thiazol-5-yl)amino]-5-[(2R,3R)-2-methyl-3-[5-(4-methylphenyl)-1H-imidazol-2-yl]piperidin-1-yl]pyrazine-2-carboxamide]	100 to 1000 nM	100 to 1000 nM
C[C@@H]1[C@H](NC(=O)c2ccc(C3CC3)cc2F)CCCN1c1cnc(C(N)=O)c(Nc2ccc(CN3CCN(C)CC3)cn2)n1 [Example D-132, 5-[(2R,3R)-3-(4-cyclopropyl-2-fluorobenzamido)-2-methylpiperidin-1-yl]-3-({5-[(4-methylpiperazin-1-yl)methyl]pyridin-2-yl}amino)pyrazine-2-carboxamide]	1000 to 10000 nM	> 10000 nM
C[C@@H]1[C@H](NC(=O)c2ccc(C3CC3)cc2F)CCCN1c1cnc(C(N)=O)c(Nc2ccc(S(C)(=O)=O)cc2)n1 [Example D-133, 5-[(2R,3R)-3-(4-cyclopropyl-2-fluorobenzamido)-2-methylpiperidin-1-yl]-3-[(4-methanesulfonylphenyl)amino]pyrazine-2-carboxamide]	100 to 1000 nM	1000 to 10000 nM
C[C@@H]1[C@H](NC(=O)c2ccc(C3CC3)cc2F)CCCN1c1cnc(C(N)=O)c(Nc2ccc(C3(C)CCN(C4CCC4)CC3)cc2)n1 [Example D-134, 3-{[4-(1-cyclobutyl-4-methylpiperidin-4-yl)phenyl]amino}-5-[(2R,3R)-3-(4-cyclopropyl-2-fluorobenzamido)-2-methylpiperidin-1-yl]pyrazine-2-carboxamide]	10 to 100 nM	100 to 1000 nM
C[C@@H]1[C@H](NC(=O)c2ccc(C3CC3)cc2)CCCN1c1cnc(C(N)=O)c(Nc2cnn(C)c2)n1 [Example D-135, 5-[(2R,3R)-3-(4-cyclopropylbenzamido)-2-methylpiperidin-1-yl]-3-[(1-methyl-1H-pyrazol-4-yl)amino]pyrazine-2-carboxamide]	10 to 100 nM	1000 to 10000 nM
Cc1ccc(-c2cnc([C@H]3CCCN(c4cnc(C(N)=O)c(Nc5cc(C)ns5)n4)C3)[nH]2)cc1 [Example D-136, 3-[(3-methyl-1,2-thiazol-5-yl)amino]-5-[(3S)-3-[5-(4-methylphenyl)-1H-imidazol-2-yl]piperidin-1-yl]pyrazine-2-carboxamide]	100 to 1000 nM	1000 to 10000 nM
Cc1ccc(-c2cnc([C@@H]3CCCN(c4cnc(C(N)=O)c(Nc5cc(C)ns5)n4)C3)[nH]2)cc1 [Example D-137, 3-[(3-methyl-1,2-thiazol-5-yl)amino]-5-[(3R)-3-[5-(4-methylphenyl)-1H-imidazol-2-yl]piperidin-1-yl]pyrazine-2-carboxamide]	1000 to 10000 nM	> 10000 nM
C[C@@H]1[C@H](NC(=O)c2ccc(C3CC3)cc2F)CCCN1c1cnc(C(N)=O)c(Nc2ccc(C3(C)CCN(C4CC4)CC3)cc2)n1 [Example D-138, 5-[(2R,3R)-3-(4-cyclopropyl-2-fluorobenzamido)-2-methylpiperidin-1-yl]-3-{[4-(1-cyclopropyl-4-methylpiperidin-4-yl)phenyl]amino}pyrazine-2-carboxamide]	10 to 100 nM	10 to 100 nM
C[C@@H]1[C@H](NC(=O)c2ccc(C3CC3)cc2F)CCCN1c1cnc(C(N)=O)c(Nc2ccc(S(=O)(=O)N3CCCC3)cc2)n1 [Example D-139, 5-[(2R,3R)-3-(4-cyclopropyl-2-fluorobenzamido)-2-methylpiperidin-1-yl]-3-{[4-(pyrrolidine-1-sulfonyl)phenyl]amino}pyrazine-2-carboxamide]	100 to 1000 nM	> 10000 nM
C[C@@H]1[C@H](NC(=O)c2ccc(C3CC3)cc2)CCCN1c1cnc(C(N)=O)c(Nc2cc(CN3CCCCC3)ns2)n1 [Example D-140, 5-[(2R,3R)-3-(4-cyclopropylbenzamido)-2-methylpiperidin-1-yl]-3-{[3-(piperidin-1-ylmethyl)-1,2-thiazol-5-yl]amino}pyrazine-2-carboxamide]	10 to 100 nM	100 to 1000 nM
CN1CCC(n2cc(Nc3nc(N4CCC[C@@H](n5ccc6cc(C7CC7)ccc6c5=O)C4)cnc3C(N)=O)cn2)CC1 [Example D-141, 5-[(3R)-3-(6-cyclopropyl-1-oxo-1,2-dihydroisoquinolin-2-yl)piperidin-1-yl]-3-{[1-(1-methylpiperidin-4-yl)-1H-pyrazol-4-yl]amino}pyrazine-2-carboxamide]	10 to 100 nM	1000 to 10000 nM
C[C@H]1CC[C@@H](NC(=O)c2ccc(C3CC3)cc2)CN1c1cnc(C(N)=O)c(Nc2cnn(C)c2)n1 [Example D-142, 5-[(2S,5R)-5-(4-cyclopropylbenzamido)-2-methylpiperidin-1-yl]-3-[(1-methyl-1H-pyrazol-4-yl)amino]pyrazine-2-carboxamide]	10 to 100 nM	100 to 1000 nM
